Measurements reported in the supplement of paper PMC10307832.

Columns and labels:
Experiment in all cases: relative viability (nuclei count vs DMSO), 5 days (fraction); higher = more cells survive
Doramapimod + Vorinostat = compound: Cc1ccc(-n2nc(C(C)(C)C)cc2NC(=O)Nc2ccc(OCCN3CCOCC3)c3ccccc23)cc1 [Doramapimod] + O=C(CCCCCCC(=O)Nc1ccccc1)NO [Vorinostat] (partner 1 µM)
In short: (§1)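 Five library-drug doses in √10 steps were combined with a fixed anchor-drug dose, or a single drug was given alone, by pin tool to lung cancer cell lines in 1536-well plates the day after seeding. Nuclei were stained and counted after 5 days. Relative viability is the nuclei count in treated wells over that in vehicle wells, taken as the median of duplicate plates.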

RAF265 + Tozasertib = compound: Cn1c(Nc2ccc(C(F)(F)F)cc2)nc2cc(Oc3ccnc(-c4ncc(C(F)(F)F)[nH]4)c3)ccc21 [RAF265] + Cc1cc(Nc2cc(N3CCN(C)CC3)nc(Sc3ccc(NC(=O)C4CC4)cc3)n2)n[nH]1 [Tozasertib] (partner 0.1 µM)
In short: as §1

RAF265 + Dasatinib = compound: Cn1c(Nc2ccc(C(F)(F)F)cc2)nc2cc(Oc3ccnc(-c4ncc(C(F)(F)F)[nH]4)c3)ccc21 [RAF265] + Cc1nc(Nc2ncc(C(=O)Nc3c(C)cccc3Cl)s2)cc(N2CCN(CCO)CC2)n1 [Dasatinib] (partner 0.075 µM)
In short: as §1

Doramapimod + Alpelisib = compound: Cc1ccc(-n2nc(C(C)(C)C)cc2NC(=O)Nc2ccc(OCCN3CCOCC3)c3ccccc23)cc1 [Doramapimod] + Cc1nc(NC(=O)N2CCC[C@H]2C(N)=O)sc1-c1ccnc(C(C)(C)C(F)(F)F)c1 [Alpelisib] (partner 2 µM)
In short: as §1

| Cell Line | relative viability (Doramapimod + Vorinostat; first compound 0.02 µM) | relative viability (Doramapimod + Vorinostat; first compound 0.06325 µM) | relative viability (Doramapimod + Vorinostat; first compound 0.2 µM) | relative viability (Doramapimod + Vorinostat; first compound 0.6325 µM) | relative viability (Doramapimod + Vorinostat; first compound 2 µM) | relative viability (RAF265 + Tozasertib; first compound 0.01 µM) | relative viability (RAF265 + Tozasertib; first compound 0.03162 µM) | relative viability (RAF265 + Tozasertib; first compound 0.1 µM) | relative viability (RAF265 + Tozasertib; first compound 0.3162 µM) | relative viability (RAF265 + Tozasertib; first compound 1 µM) | relative viability (RAF265 + Dasatinib; first compound 0.01 µM) | relative viability (RAF265 + Dasatinib; first compound 0.03162 µM) | relative viability (RAF265 + Dasatinib; first compound 0.1 µM) | relative viability (RAF265 + Dasatinib; first compound 0.3162 µM) | relative viability (RAF265 + Dasatinib; first compound 1 µM) | relative viability (Doramapimod + Alpelisib; first compound 0.02 µM) | relative viability (Doramapimod + Alpelisib; first compound 0.06325 µM) | relative viability (Doramapimod + Alpelisib; first compound 0.2 µM) | relative viability (Doramapimod + Alpelisib; first compound 0.6325 µM) | relative viability (Doramapimod + Alpelisib; first compound 2 µM) |
| --- | --- | --- | --- | --- | --- | --- | --- | --- | --- | --- | --- | --- | --- | --- | --- | --- | --- | --- | --- | --- |
| NCI-H2023 | 0.718 | 0.664 | 0.556 | 0.607 | 0.519 | 0.314 | 0.497 | 0.466 | 0.286 | 0.183 | 0.601 | 0.562 | 0.516 | 0.419 | 0.365 | 0.498 | 0.54 | 0.503 | 0.617 | 0.503 |
| LC-2-ad | 0.753 | 0.748 | 0.742 | 0.745 | 0.764 | 0.529 | 0.459 | 0.507 | 0.356 | 0.335 | 0.57 | 0.691 | 0.386 | 0.27 | 0.196 | 0.943 | 0.995 | 0.884 | 0.888 | 0.835 |
| NCI-H1666 | 1.05 | 0.986 | 1.03 | 1.14 | 0.944 | 0.635 | 0.664 | 0.689 | 0.618 | 0.488 | 0.868 | 0.814 | 0.768 | 0.87 | 0.781 | 0.834 | 1.01 | 0.882 | 1.03 | 1.01 |
| 201T | 0.994 | 1.03 | 1.06 | 0.672 | 1 | 0.955 | 0.862 | 1.03 | 0.939 | 0.696 | 0.575 | 0.624 | 0.532 | 0.495 | 0.458 | 1.04 | 1 | 0.992 | 1.07 | 0.982 |
| NCI-H2009 | 0.765 | 0.745 | 0.762 | 0.92 | 0.777 | 0.758 | 0.721 | 0.745 | 0.809 | 0.476 | 0.3 | 0.262 | 0.227 | 0.214 | 0.147 | 1.23 | 1.22 | 1.22 | 1.13 | 1.13 |
| NCI-H1395 | 0.722 | 0.943 | 0.975 | 0.67 | 0.571 | 0.677 | 0.667 | 0.666 | 0.84 | 0.609 | 0.449 | 0.432 | 0.395 | 0.336 | 0.372 | 1.07 | 1.08 | 0.93 | 1.14 | 0.938 |
| NCI-H2228 | 0.588 | 0.91 | 0.496 | 0.894 | 0.516 | 0.329 | 0.235 | 0.334 | 0.211 | 0.131 | 0.484 | 0.535 | 0.397 | 0.179 | 0.139 | 0.911 | 0.518 | 0.619 | 0.753 | 0.649 |
| LU99A | 0.443 | 0.455 | 0.578 | 0.53 | 0.474 | 0.318 | 0.285 | 0.28 | 0.291 | 0.195 | 0.534 | 0.454 | 0.472 | 0.3 | 0.179 | 0.523 | 0.484 | 0.486 | 0.484 | 0.441 |
| NCI-H1437 | 0.789 | 0.912 | 0.836 | 0.855 | 0.688 | 0.408 | 0.437 | 0.427 | 0.45 | 0.365 | 0.451 | 0.416 | 0.403 | 0.397 | 0.395 | 0.904 | 1.01 | 0.915 | 0.926 | 0.965 |
